Data as given in ChEMBL document CHEMBL1201862, “PubChem BioAssay data set” (2004).
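96-well plates; 48 h exposure; 5 concentrations. Endpoints by linear interpolation between flanking doses. Not reached: highest tested concentration assigned. Here, GI50 denotes the concentration required for 50% inhibition of growth.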 The source made the active and inactive calls. Cut-off read from the data, not from the text of the source: active = GI50 up to about 1.1 µM and inactive = higher.

How the values were obtained:
Test in all cases: NCI-60 cell line screen, 48 h
[1] = tested on: DLD-1
[2] = tested on: XF498
[3] = tested on: KM-20L2
[4] = tested on: SNB-78
[5] = tested on: M19-MEL
[6] = tested on: HOP-18
[7] = tested on: DMS-114
[8] = tested on: LXFL 529
[9] = tested on: RXF 631

| SMILES | GI50 [1] | GI50 [2] | GI50 [3] | GI50 [4] | GI50 [5] | GI50 [6] | GI50 [7] | GI50 [8] | GI50 [9] |
| --- | --- | --- | --- | --- | --- | --- | --- | --- | --- |
| COc1ccc(CC2C(=O)NC(C)C(=O)N(C)C3Cc4ccc(cc4)Oc4cc(ccc4O)CC(C(=O)NC(C)C(=O)NC(C)C(=O)N2C)N(C)C3=O)cc1 (stereo not given) | 0.0469 µM (active) | 0.0175 µM (active) | 0.0175 µM (active) | 0.0175 µM (active) | 0.0175 µM (active) | – | – | – | – |
| NC1CCCCC1.O=C(O)C1(P(=O)(O)O)CC1 | > 100 µM (inactive) | > 100 µM (inactive) | > 100 µM (inactive) | > 100 µM (inactive) | > 100 µM (inactive) | > 100 µM (inactive) | > 100 µM (inactive) | > 100 µM (inactive) | – |
| CC(=O)OC1COC(n2c(=S)n(-c3ccc(C)cc3)c(=O)c3ccccc32)C(OC(C)=O)C1OC(C)=O (stereo not given) | > 100 µM (inactive) | > 100 µM (inactive) | > 100 µM (inactive) | > 100 µM (inactive) | > 100 µM (inactive) | > 100 µM (inactive) | > 100 µM (inactive) | 58.3 µM (inactive) | 68.9 µM (inactive) |
| O=S(=O)(N/N=C/c1cccc(/C=N/NS(=O)(=O)c2ccccc2)c1)c1ccccc1 | 81.5 µM (inactive) | – | > 100 µM (inactive) | > 100 µM (inactive) | > 100 µM (inactive) | 91 µM (inactive) | 47.4 µM (inactive) | 39 µM (inactive) | 73.8 µM (inactive) |
| Cc1ccccc1NC(=O)C(=O)Cc1nc2ccccc2s1 | > 100 µM (inactive) | > 100 µM (inactive) | – | 92.5 µM (inactive) | > 100 µM (inactive) | > 100 µM (inactive) | > 100 µM (inactive) | > 100 µM (inactive) | > 100 µM (inactive) |
| Cc1[nH]c2ccccc2c1-c1n[nH]c(=O)c2ccccc12 | 15.9 µM (inactive) | 27.1 µM (inactive) | 25.2 µM (inactive) | 46.8 µM (inactive) | 29 µM (inactive) | – | 14.8 µM (inactive) | 21.6 µM (inactive) | 13 µM (inactive) |
| CC(C)OC(=O)c1cccnc1/C=N/O | > 100 µM (inactive) | > 100 µM (inactive) | > 100 µM (inactive) | > 100 µM (inactive) | > 100 µM (inactive) | – | > 100 µM (inactive) | > 100 µM (inactive) | – |
| Cc1[nH]c2ccccc2c1C1Cc2ccccc2N1C(=O)/C(Cl)=C/c1ccccc1 (stereo not given) | 74.3 µM (inactive) | 12.4 µM (inactive) | > 100 µM (inactive) | 23.3 µM (inactive) | > 100 µM (inactive) | 66.2 µM (inactive) | > 20.9 µM (inactive) | > 100 µM (inactive) | > 100 µM (inactive) |
| COc1nc(NC2OC(COC(C)=O)C(OC(C)=O)C(OC(C)=O)C2OC(C)=O)c(/N=C/C=N/c2c(NC3OC(COC(C)=O)C(OC(C)=O)C(OC(C)=O)C3OC(C)=O)nc(OC)n(C)c2=O)c(=O)n1C (stereo not given) | > 100 µM (inactive) | 44.2 µM (inactive) | > 100 µM (inactive) | – | > 100 µM (inactive) | > 100 µM (inactive) | > 100 µM (inactive) | > 100 µM (inactive) | – |
| CCOC(=O)/C=C1\CCCC12OCCO2 | 89.3 µM (inactive) | – | > 100 µM (inactive) | > 100 µM (inactive) | > 100 µM (inactive) | > 100 µM (inactive) | 85.5 µM (inactive) | > 100 µM (inactive) | – |
| COc1cc(/C=C2/C(=O)N(C(=O)OCC(C)C)C(Cc3cc(OC)c(OC)c(C)c3OC)C(=O)N2Cc2ccccc2)c(OC)c(C)c1OC (stereo not given) | 84.3 µM (inactive) | – | > 100 µM (inactive) | – | > 100 µM (inactive) | > 100 µM (inactive) | 23.1 µM (inactive) | 5.57 µM (inactive) | > 100 µM (inactive) |
| N#C/C(=C1\SC(C(N)=O)=C(N)N1c1ccccc1)c1nc2ccccc2[nH]1 | > 100 µM (inactive) | > 100 µM (inactive) | > 100 µM (inactive) | 44.4 µM (inactive) | > 100 µM (inactive) | – | > 100 µM (inactive) | > 100 µM (inactive) | – |
| S=C1ON=C(c2ccccc2)/C1=C/Nc1ccccc1 | 37.2 µM (inactive) | > 100 µM (inactive) | – | > 100 µM (inactive) | – | < 0.01 µM (active) | > 100 µM (inactive) | > 100 µM (inactive) | – |
| O=c1c(C(c2ccc([N+](=O)[O-])cc2)c2c(O)c3ccccc3n(-c3ccccc3)c2=O)c(O)c2ccccc2n1-c1ccccc1 | 6.41 µM (inactive) | 19.7 µM (inactive) | 27.2 µM (inactive) | 21.7 µM (inactive) | 32.5 µM (inactive) | 2.4 µM (inactive) | 20.3 µM (inactive) | 8.05 µM (inactive) | 14.7 µM (inactive) |
| CNC(C)(C)Cc1ccc(Cl)cc1 | > 100 µM (inactive) | 34.7 µM (inactive) | > 100 µM (inactive) | – | > 100 µM (inactive) | – | > 100 µM (inactive) | > 100 µM (inactive) | – |
| CC(C)C(C(=O)O)N(CC1(O)OCC(O)C(O)C1O)N=O (stereo not given) | > 100 µM (inactive) | > 100 µM (inactive) | > 100 µM (inactive) | > 100 µM (inactive) | > 100 µM (inactive) | – | > 100 µM (inactive) | > 100 µM (inactive) | > 100 µM (inactive) |
| CSc1nc2c(nc(N)n2C2OC(COC(C)=O)C(OC(C)=O)C(OC(C)=O)C2OC(C)=O)c(=O)n1C (stereo not given) | > 100 µM (inactive) | > 100 µM (inactive) | > 100 µM (inactive) | > 100 µM (inactive) | – | > 100 µM (inactive) | > 100 µM (inactive) | > 100 µM (inactive) | > 100 µM (inactive) |
| CC(=O)OCCOCNC(=S)N/N=C/c1cc(Br)cs1 | > 100 µM (inactive) | > 100 µM (inactive) | > 100 µM (inactive) | > 100 µM (inactive) | > 100 µM (inactive) | > 100 µM (inactive) | > 100 µM (inactive) | > 100 µM (inactive) | > 100 µM (inactive) |
| Cc1cc(N(CCC#N)S(=O)(=O)c2ccccc2)ccc1C=O | > 100 µM (inactive) | – | > 100 µM (inactive) | > 100 µM (inactive) | – | > 100 µM (inactive) | > 100 µM (inactive) | > 100 µM (inactive) | > 100 µM (inactive) |
| O=C(CC(=O)c1cccc2ccccc12)C(=O)Nc1nccs1 | > 100 µM (inactive) | – | > 100 µM (inactive) | > 100 µM (inactive) | > 100 µM (inactive) | > 100 µM (inactive) | – | > 100 µM (inactive) | – |
| Clc1ccc2c(c1)-c1c3c(nn1-c1ccccc1)-c1ccccc1SC3O2 (stereo not given) | – | > 100 µM (inactive) | > 100 µM (inactive) | > 100 µM (inactive) | > 100 µM (inactive) | > 100 µM (inactive) | 56.1 µM (inactive) | > 100 µM (inactive) | – |
| NC1CCC2(O)c3ccccc3C2C1 (stereo not given) | – | > 100 µM (inactive) | > 100 µM (inactive) | > 100 µM (inactive) | > 100 µM (inactive) | > 100 µM (inactive) | > 100 µM (inactive) | > 100 µM (inactive) | – |
| Cc1ccc(/N=N/c2c(C)nn(-c3ccccc3)c2-c2ccccc2)c(Br)c1 | 57.4 µM (inactive) | – | > 100 µM (inactive) | – | 55.1 µM (inactive) | > 100 µM (inactive) | – | 87.9 µM (inactive) | 34.4 µM (inactive) |
| CC1C=CC(C)C2(O)C(=O)NC(O)C12 (stereo not given) | > 100 µM (inactive) | – | > 100 µM (inactive) | > 100 µM (inactive) | > 100 µM (inactive) | > 100 µM (inactive) | > 100 µM (inactive) | > 100 µM (inactive) | > 100 µM (inactive) |
| c1ccc2c(NCCCCCCNc3c4ccccc4nc4ccccc34)c3ccccc3nc2c1 | 0.291 µM (active) | 1.41 µM (inactive) | 0.0785 µM (active) | 0.498 µM (active) | 1.09 µM (active) | 2.91 µM (inactive) | 0.366 µM (active) | 0.155 µM (active) | – |
| CN(C)CCN1C(=O)c2cccc3cc(N)cc(c23)C1=O [AMONAFIDE] | 5.38 µM (inactive) | 0.946 µM (active) | 3.99 µM (inactive) | – | 4.19 µM (inactive) | 5.2 µM (inactive) | 4.21 µM (inactive) | – | – |
| C[C@H](N)C(=O)N[C@@H]1[C@H]2C(=C(O)C[C@@H](O)[C@@H]2O)C(=O)O[C@]1(C)C(Cl)Cl [BACTOBOLIN] | 0.24 µM (active) | 0.0938 µM (active) | 0.262 µM (active) | 0.281 µM (active) | 0.232 µM (active) | 0.57 µM (active) | 0.178 µM (active) | 0.108 µM (active) | 0.289 µM (active) |
